The subject of test [1] is symmetric dimethylation of arginine (SDMA) of PRMT5 substrates in MCF-7 cells. As to the kind of experiment: PRMT5 Cell Target Engagement (TE) Assay. Format: cell-based. Conditions: Homo sapiens, MCF7, 72 h, treated for 3 days, nuclear SDMA by high content imaging, top concentration 10000 nM. The source says:
The PRMT5 TE assay is a biomarker assay for identifying compounds that inhibit symmetric dimethylation of arginine (SDMA) of PRMT5 substrates. The following substrates have been reported for PRMT5: Histone H2A and H4 R3, Histone H3 R2, Histone H3 R8, spliceosome Sm proteins, ribosomal protein RPS10, p53, FEN1, nucleoplasmin, nucleolin, EGFR and EBNA. The assay will focus on detecting symmetrically dimethylated nuclear proteins using high content imaging technology. Detection of the expression of symmetrically dimethylated nuclear proteins is through a mixture of primary rabbit monoclonal antibodies to SDMA (CST 13222), which in turn recognized by an Alexafluor 488 dye-conjugated anti-rabbit IgG secondary antibody. The IN Cell Analyzer 2200 or Opera-Phenix measures nuclear Alexafluor 488 fluorescent dye intensity that is directly related to the level of expression of symmetrically dimethylated nuclear proteins at the single cell level. Nuclear AF488 dye intensities are compared to the mean value for DMSO treated cells (MIN) to report percent of inhibition for each compound-treated well.
In this assay, the cell potency (EC50) of each compound was determined from a ten point (1:3 serial dilution; top compound concentration of 10000 nM) titration curve using the following outlined procedure. Each well of a BD falcon collagen coated black/clear bottom 384-well plate was seeded with 4000 MCF-7 cells in 30 μl media and allowed to attach for 5 hours. Media is ATCC-formulated Eagle's Minimum Essential Medium, Catalog No. 30-2003. The following components were added to the base medium: 0.01 mg/mL human recombinant insulin; fetal bovine serum to a final concentration of 10%. Additional 30 µl of media containing 2× compounds were added to each well. Cells were treated for 3 days in 37° C. CO2 incubator. On day 3, cells were fixed with Cytofix, permeabilized with 0.4% Triton-X-100/Cytofix, and washed with D-PBS without Ca/Mg. Cells were blocked with Licor Odessey blocking reagent for 1 hour at room temperature, followed by incubation with anti-SDMA (1:1000) antibody at 4° C. overnight. 1° antibody was removed, followed by three washings with DPBS without Ca/Mg and 0.05% Tween20. Hoechst (5 μg/mL), Cell Mask deep stain (1:2000) and Alexa488-conjugated goat anti-rabbit IgG (2 μg/mL) was added for 1 hour at room temperature. A final washing step (three washes) was performed before sealing plate for imaging on In Cell Analyzer 2200 or Opera-Phenix. Images from analyzer were uploaded to Columbus for image analysis. IC50 values were determined by 4 parameters robust fit of percent fluorescence units vs. (Log 10) compound concentrations.

In test [2] the target is T1, Full-length (FL)-PRMT5-MEP50 enzyme complex (Homo sapiens, UniProt O14744).
T1 construct: Full-length (FL)-PRMT5-MEP50 enzyme complex (recombinant proteins from baculovirus-transfected Sf21 cells: FL-PRMT5; MW=73837 kDa and FL-MEP50; MW=38614); made in house; host or cells: baculovirus-transfected Sf21 insect cells
T1 sequence (O14744 whole entry): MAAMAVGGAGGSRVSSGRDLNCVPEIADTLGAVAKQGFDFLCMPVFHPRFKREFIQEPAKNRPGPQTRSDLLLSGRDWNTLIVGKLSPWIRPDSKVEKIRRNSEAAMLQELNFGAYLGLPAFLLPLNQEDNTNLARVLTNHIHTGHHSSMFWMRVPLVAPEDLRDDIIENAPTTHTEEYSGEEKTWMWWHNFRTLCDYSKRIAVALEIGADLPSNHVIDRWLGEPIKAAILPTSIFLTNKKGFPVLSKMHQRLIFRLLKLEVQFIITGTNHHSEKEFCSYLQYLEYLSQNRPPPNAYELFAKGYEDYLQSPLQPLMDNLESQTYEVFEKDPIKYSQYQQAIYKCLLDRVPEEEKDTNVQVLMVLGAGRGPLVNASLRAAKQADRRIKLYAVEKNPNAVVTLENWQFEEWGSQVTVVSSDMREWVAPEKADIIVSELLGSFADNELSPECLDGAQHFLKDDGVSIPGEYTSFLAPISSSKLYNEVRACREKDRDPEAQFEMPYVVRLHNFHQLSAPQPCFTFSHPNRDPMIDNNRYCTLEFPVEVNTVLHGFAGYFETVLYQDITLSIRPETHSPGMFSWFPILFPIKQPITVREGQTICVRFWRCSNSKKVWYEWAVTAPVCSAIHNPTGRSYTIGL
T1 sequence (Q9BQA1 whole entry partner): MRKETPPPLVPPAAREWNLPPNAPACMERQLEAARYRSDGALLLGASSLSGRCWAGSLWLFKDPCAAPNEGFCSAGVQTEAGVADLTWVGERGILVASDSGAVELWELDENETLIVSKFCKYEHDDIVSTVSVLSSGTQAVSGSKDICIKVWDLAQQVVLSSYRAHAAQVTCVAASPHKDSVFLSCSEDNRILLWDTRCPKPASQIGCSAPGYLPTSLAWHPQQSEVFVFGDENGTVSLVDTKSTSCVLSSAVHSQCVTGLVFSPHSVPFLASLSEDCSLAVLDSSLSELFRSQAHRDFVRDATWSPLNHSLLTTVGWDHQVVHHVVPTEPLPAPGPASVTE
Nature of the test: PRMT5-MEP50 Enzyme Methylation Assay. It is filed as biochemical. Particulars: 1.0 nM PRMT5-MEP50, 75 nM biotinylated peptide, 15 μM SAM. An outline of the steps: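 Compound was pre-incubated 60 min at 37°C with 1.0 nM enzyme and 15 μM SAM (final) in 50 mM Bicine pH 8.0, then 75 nM biotinylated H4R3(Me1) peptide was added and reacted 150 min; twenty-point 1:2 titration from 100000 nM, 1% DMSO. Formic acid quench; SAMDI mass spectrometry measured Me1-to-Me2 conversion, EC50 by 4- or 7-parameter regression.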

The mark [3] stands for this setting: one EC50: 4 parameters single site sigmoidal model, EC50 1: first value of 7 parameters biphasic model, read-out: Enzyme Methylation Assay (EC50 or EC50 1).
[4] abbreviates: second EC50 of 7 parameters biphasic model, read-out: Enzyme Methylation Assay (EC50 2).

The text below walks through data of patent publication US20230062119A1, “USE OF BIOMARKERS IN IDENTIFYING PATIENTS THAT WILL BE RESPONSIVE TO TREATMENT WITH A PRMT5 INHIBITOR” (Merck Sharp & Dohme LLC, priority 2019, published 2023).

Counter-ions that a name gives are not always drawn. Like-named read-outs stand apart in the source and are kept apart here.

As for `Nc1nc2cc(CC[C@]3(CF)C[C@@H](n4ccc5c(N)ncnc54)[C@H](O)[C@@H]3O)ccc2cc1Br` [Example 102, (1S,2R,5R)-3-(2-(2-amino-3-bromoquinolin-7-yl)ethyl)-5-(4-amino-7H-pyrrolo[2,3-d]pyrimidin-7-yl)-3-(fluoromethyl)cyclopentane-1,2-diol], the values for the EC50 in test [1] and in test [2] (setting [3]) were 2 nM and 0.3 nM, respectively.
For `Nc1ncc2ccn([C@@H]3O[C@@H]4[C@@H](Oc5ccc6cc(Br)c(N)nc6c5)CC[C@]4(O)[C@H]3O)c2n1` [compound 46, (2R,3R,3aS,6S,6aR)-6-((2-amino-3-bromoquinolin-7-yl)oxy)-2-(2-amino-7H-pyrrolo[2,3-d]pyrimidin-7-yl)hexahydro-3aH-cyclopenta[b]furan-3,3a-diol dihydrochloride] the same measures were 16.8 nM and 0.5 nM.
For `Nc1nc2cc(C[C@@H]3CC[C@@]4(O)[C@@H]3O[C@@H](n3cc(C5CC5)c5c(N)ncnc53)[C@@H]4O)ccc2cc1F` [Example 50, (2R,3R,3aS,6S,6aR)-2-(4-amino-5-cyclopropyl-7H-pyrrolo[2,3-d]pyrimidin-7-yl)-6-[(2-amino-3-fluoroquinolin-7-yl)methyl]hexahydro-3aH-cyclopenta[b]furan-3,3a-diol], in that order: 0.7 nM and 0.3 nM.
For `Nc1nc2cc(O[C@H]3CC[C@@]4(O)[C@@H]3O[C@@H](n3ccc5c(C(F)F)ncnc53)[C@@H]4O)ccc2cc1Br` [Example 79, (2R,3R,3aS,6S,6aR)-6-((2-amino-3-bromoquinolin-7-yl)oxy)-2-(4-(difluoromethyl)-7H-pyrrolo[2,3-d]pyrimidin-7-yl)hexahydro-3aH-cyclopenta[b]furan-3,3a-diol] the same measures were 52.5 nM and 2.9 nM.
In the case of `CCc1ncnc2c1ccn2[C@@H]1O[C@@H]2[C@@H](Oc3ccc4cc(Br)c(N)nc4c3)CC[C@]2(O)[C@H]1O` [Example 82, 2,2,2-trifluoroacetate], the EC50 was 87.2 nM in test [1], 0.7 nM in test [2] (setting [3]) and 75.9 nM in test [2] (setting [4]).
In the case of `CCc1cn([C@@H]2O[C@@H]3[C@@H](Oc4ccc5cc(Br)c(N)nc5c4)CC[C@]3(O)[C@H]2O)c2ncnc(N)c12` [Example 69, (2R,3R,3aS,6S,6aR)-6-((2-amino-3-bromoquinolin-7-yl)oxy)-2-(4-amino-5-ethyl-7H-pyrrolo[2,3-d]pyrimidin-7-yl)hexahydro-3aH-cyclopenta[b]furan-3,3a-diol], the EC50 in test [1] was found to be 103 nM; in test [2] (setting [3]) it was 1.1 nM.
Regarding `Nc1nc2cc(C[C@@H]3CC[C@@]4(O)[C@@H]3O[C@@H](n3cc(C(F)F)c5c(N)ncnc53)[C@@H]4O)ccc2cc1Br` [Example 43, (2R,3R,3aS,6S,6aR)-6-[(2-amino-3-bromoquinolin-7-yl)methyl]-2-[4-amino-5-(difluoromethyl)-7H-pyrrolo[2,3-d]pyrimidin-7-yl]hexahydro-3aH-cyclopenta[b]furan-3,3a-diol], the EC50 in test [2] (setting [3]) stood at 0.4 nM.
`Cc1ncnc2c1ccn2[C@@H]1O[C@@H]2[C@@H](Cc3ccc4cc(Cl)c(N)nc4c3)CC[C@]2(O)[C@H]1O` [Example 131, (2R,3R,3aS,6R,6aR)-6-((2-amino-3-chloroquinolin-7-yl)methyl)-2-(4-methyl-7H-pyrrolo[2,3-d]pyrimidin-7-yl)hexahydro-3aH-cyclopenta[b]furan-3,3a-diol]: the 50% effective concentration (EC50) in test [2] (setting [3]) is 0.6 nM.
Turning to `C[C@@]1(O)[C@@H](COc2ccc3ccc(N)nc3c2)C[C@@H](n2ccc3cncnc32)[C@@H]1O` [Example 105, (1R,2S,3R,5R)-5-(((2-aminoquinolin-7-yl)oxy)methyl)-1-methyl-3-(7H-pyrrolo[2,3-d]pyrimidin-7-yl)cyclopentane-1,2-diol], the EC50 in test [2] (setting [3]) was 0.3 nM; in test [2] (setting [4]), 21.9 nM.
For `Cc1nc(N)c2c(F)cn([C@@H]3O[C@@H]4[C@H](Cc5ccc6cc(F)c(N)nc6c5)CC[C@]4(O)[C@H]3O)c2n1` [Example 44, (2R,3R,3aS,6S,6aR)-6-((2-amino-3-fluoroquinolin-7-yl)methyl)-2-(4-amino-5-fluoro-2-methyl-7H-pyrrolo[2,3-d]pyrimidin-7-yl)hexahydro-3aH-cyclopenta[b]furan-3,3a-diol 2,2,2-trifluoroacetate], the EC50 in test [2] (setting [3]) was 0.4 nM.
The same measure, in the same setting: in the case of `Nc1nc2cc(O[C@H]3CC[C@@]4(O)[C@@H]3O[C@@H](n3cc(-c5ccccc5)c5c(N)ncnc53)[C@@H]4O)ccc2cc1Br` [Example 49, (2R,3R,3aS,6S,6aR)-6-[(2-amino-3-bromoquinolin-7-yl)oxy]-2-(4-amino-5-phenyl-7H-pyrrolo[2,3-d]pyrimidin-7-yl)hexahydro-3aH-cyclopenta[b]furan-3,3a-diol] it was 0.5 nM; in that of `C[C@]1(CCc2ccc3cc4c(nc3c2)NCC4)C[C@@H](n2ccc3c(N)ncnc32)[C@H](O)[C@@H]1O` [Example 126, (1S,2R,3S,5R)-5-(4-amino-7H-pyrrolo[2,3-d]pyrimidin-7-yl)-3-(2-(2,3-dihydro-1H-pyrrolo[2,3-b]quinolin-7-yl)ethyl)-3-methylcyclopentane-1,2-diol], 0.6 nM.
On to `Cc1ncnc2c1ccn2[C@@H]1C[C@@H]2[C@@H](Cc3ccc4cc(F)c(N)nc4c3)CC[C@]2(O)[C@H]1O` [Example 18, (1S,2R,3aR,4R,6aR)-4-((2-amino-3-fluoroquinolin-7-yl)methyl)-2-(4-methyl-7H-pyrrolo[2,3-d]pyrimidin-7-yl)hexahydropentalene-1,6a(1H)-diol], for which the figures for the EC50 in test [2] (setting [3]) and in test [2] (setting [4]) were 0.4 nM and 229 nM, respectively.
For `C[C@]1(O)[C@@H](O)[C@H](n2ccc3c(N)ncnc32)C[C@]1(O)CCc1ccc2cc(Br)c(N)nc2c1` [Example 118, (1R,2S,3S,4R)-1-(2-(2-amino-3-bromoquinolin-7-yl)ethyl)-4-(4-amino-7H-pyrrolo[2,3-d]pyrimidin-7-yl)-2-methylcyclopentane-1,2,3-triol] the same measures were 3.2 nM and 1590 nM.
As to `Cc1ncnc2c1ccn2[C@@H]1O[C@@H]2[C@@H](Oc3ccc4cc(Br)c(N)nc4c3)CC[C@]2(O)[C@H]1O` [Example 7, (2R,3R,3aS,6S,6aR)-6-((2-amino-3-bromoquinolin-7-yl)oxy)-2-(4-methyl-7H-pyrrolo[2,3-d]pyrimidin-7-yl)hexahydro-2H-cyclopenta[b]furan-3,3a-diol], the concentration for a half-maximal effect (EC50) in test [2] (setting [3]) is 0.7 nM.
The same measure, in the same setting: in the case of `Nc1nc2cc(C[C@@H]3CC[C@@]4(O)[C@@H]3O[C@@H](n3ccc5c(N)ncnc53)[C@@H]4O)ccc2cc1C(F)(F)F` [compound 76, (2R,3R,3aS,6S,6aR)-6-((2-amino-3-(trifluoromethyl)quinolin-7-yl)methyl)-2-(4-amino-7H-pyrrolo[2,3-d]pyrimidin-7-yl)hexahydro-3aH-cyclopenta[b]furan-3,3a-diol] it was 0.9 nM; in that of `Cc1cn([C@@H]2O[C@@H]3[C@@H](Oc4ccc5cc(Br)c(N)nc5c4)CC[C@]3(O)[C@H]2O)c2ncnc(N)c12` [Example 60, (2R,3R,3aS,6S,6aR)-6-((2-amino-3-bromoquinolin-7-yl)oxy)-2-(4-amino-5-methyl-7H-pyrrolo[2,3-d]pyrimidin-7-yl)hexahydro-3aH-cyclopenta[b]furan-3,3a-diol], 0.4 nM.

What is called EC50 is the concentration giving half of the maximal effect.
